Measured values from publication PMC4002258 (Biochimica et biophysica acta, 2013).
Read-outs that look alike come from different tables or passages of the source. Marks after values point to notes of the source that are not given here.

Experiments:
Format in all cases: biochemical
[1] = molecular target: T1, human recombinant core 2 β1,6-GlcNAc-transferase (C2GnT1) (Homo sapiens, UniProt Q02742); assay: C2GnT1 glycosyltransferase assay; settings: for C2GnT1 activity (%): acceptor substrate 0.5 mM, 0.5 mM Galβ1–3GalNAcα-pnp set to 100%
T1 sequence (Q02742 33-428 limits assumed): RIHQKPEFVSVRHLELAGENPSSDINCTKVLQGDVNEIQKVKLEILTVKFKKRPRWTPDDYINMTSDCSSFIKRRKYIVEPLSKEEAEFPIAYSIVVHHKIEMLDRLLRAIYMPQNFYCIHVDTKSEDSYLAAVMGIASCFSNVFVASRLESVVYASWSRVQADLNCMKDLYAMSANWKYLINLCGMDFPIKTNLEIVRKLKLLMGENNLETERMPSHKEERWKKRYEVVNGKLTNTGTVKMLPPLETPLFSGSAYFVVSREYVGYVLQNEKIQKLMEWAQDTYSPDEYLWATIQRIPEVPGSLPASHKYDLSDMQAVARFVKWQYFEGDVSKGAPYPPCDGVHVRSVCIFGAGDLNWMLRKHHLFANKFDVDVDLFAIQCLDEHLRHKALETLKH

[2] = molecular target: T2, human recombinant core 2/4 β1,6-GlcNAc-transferase (C2GnT2) (Homo sapiens, UniProt O95395); settings: for C2GnT2 activity (%): acceptor substrate 0.5 mM, 0.5 mM Galβ1–3GalNAcα-pnp set to 100%
T2 sequence (O95395 27-438): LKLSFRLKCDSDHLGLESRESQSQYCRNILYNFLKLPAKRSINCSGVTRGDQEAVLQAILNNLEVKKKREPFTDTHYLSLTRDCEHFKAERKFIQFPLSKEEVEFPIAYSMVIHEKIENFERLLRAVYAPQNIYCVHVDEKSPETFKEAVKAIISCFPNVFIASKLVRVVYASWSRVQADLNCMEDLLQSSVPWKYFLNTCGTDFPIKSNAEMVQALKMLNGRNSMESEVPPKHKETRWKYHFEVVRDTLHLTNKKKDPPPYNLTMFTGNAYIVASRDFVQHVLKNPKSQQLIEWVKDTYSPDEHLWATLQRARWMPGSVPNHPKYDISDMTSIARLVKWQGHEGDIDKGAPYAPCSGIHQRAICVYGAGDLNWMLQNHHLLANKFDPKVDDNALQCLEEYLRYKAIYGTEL

[3] = molecular target: human recombinant core 1 β1,3-Gal-transferase (C1GalT) (Homo sapiens, UniProt Q9NS00); assay: C1GalT glycosyltransferase assay; settings: acceptor substrate 0.5 mM; 0.5 mM GalNAcα-Bn set to 100%
Sequence of human recombinant core 1 β1,3-Gal-transferase (C1GalT) (Q9NS00 30-363 limits assumed): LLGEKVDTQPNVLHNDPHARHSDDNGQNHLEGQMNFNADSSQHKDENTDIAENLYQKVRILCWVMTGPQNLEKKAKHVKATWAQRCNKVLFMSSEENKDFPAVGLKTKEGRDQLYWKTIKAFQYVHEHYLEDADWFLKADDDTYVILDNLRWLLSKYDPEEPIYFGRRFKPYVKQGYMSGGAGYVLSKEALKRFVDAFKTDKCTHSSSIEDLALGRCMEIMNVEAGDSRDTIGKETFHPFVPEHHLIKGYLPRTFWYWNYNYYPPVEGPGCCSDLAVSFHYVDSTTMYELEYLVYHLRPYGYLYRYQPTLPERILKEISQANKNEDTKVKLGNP

Row | Compound | C2GnT1 activity (%) [1] | C2GnT2 activity (%) [2] | further results
1 | CC(=O)N[C@H]1[C@@H](OCc2ccccc2)O[C@H](CO)[C@H](O)[C@@H]1O[C@@H]1O[C@H](CO)[C@H](O)C[C@H]1O [3-Deoxy-Galβ1–3GalNAcα-Bn] | 90% | 52% | 
2 | CO[C@H]1[C@@H](O)[C@@H](CO)O[C@@H](O[C@H]2[C@@H](O)[C@@H](CO)O[C@H](OCc3ccccc3)[C@@H]2NC(C)=O)[C@@H]1O [3-O-Methyl-Galβ1–3GalNAcα-Bn] | 104% | 41% | 
3 | CC(=O)N[C@H]1[C@@H](OCc2ccccc2)O[C@H](CO)[C@H](O)[C@@H]1O[C@@H]1O[C@H](CO)C[C@H](O)[C@H]1O [4-Deoxy-Galβ1–3GalNAcα-Bn] | <1% | <1% | 
4 | CC(=O)N[C@H]1[C@@H](OCc2ccccc2)O[C@H](CO)[C@H](O)[C@@H]1O[C@@H]1O[C@H](CO)[C@H](F)[C@H](O)[C@H]1O [4-F-4-Deoxy-Galβ1–3GalNAcα-Bn] | <1% | <1% | 
5 | CC(=O)N[C@H]1[C@@H](OCc2ccccc2)O[C@H](CO)[C@H](O)[C@@H]1O[C@@H]1O[C@H](C)[C@H](O)[C@H](O)[C@H]1O [6-Deoxy-Galβ1–3GalNAcαBn] | <1% | <1% | 
6 | CO[C@H]1O[C@H](CO)[C@H](O)[C@H](O[C@@H]2O[C@H](CO)[C@H](O)[C@H](O)[C@H]2O[C@@H]2O[C@@H](C)[C@@H](O)[C@@H](O)[C@@H]2O)[C@H]1NC(C)=O [Fucα1–2Galβ1–3GalNAcα-methyl] | <1% | <1% | 
7 | CC(=O)N[C@H]1[C@@H](OCc2ccccc2)O[C@H](CO)C[C@@H]1O[C@@H]1O[C@H](CO)[C@H](O)[C@H](O)[C@H]1O [Galβ1–3(4-deoxy)GalNAcα-Bn] | <1% | <1% | 
8 | COC[C@H]1O[C@H](OCc2ccccc2)[C@H](NC(C)=O)[C@@H](O[C@@H]2O[C@H](CO)[C@H](O)[C@H](O)[C@H]2O)[C@H]1O [Galβ1–3(6-O-methyl)GalNAcα-Bn] | <1% | <1% | 
9 | CC(=O)N[C@H]1[C@@H](OCc2ccccc2)O[C@H](CO)[C@H](O)[C@@H]1O[C@@H]1O[C@H](CO)[C@H](O)[C@H](O)[C@H]1O [Galβ1–3GalNAcα-Bn] | 64% | 35% | 
10 | CC(=O)N[C@H]1[C@@H](Oc2ccccc2[N+](=O)[O-])O[C@H](CO)[C@H](O)[C@@H]1O[C@@H]1O[C@H](CO)[C@H](O)[C@H](O)[C@H]1O [Galβ1–3GalNAcα-onp] | 79% | 100% | 
11 | C=C(C)C1CC=C(CO[C@H]2O[C@H](CO)[C@H](O)[C@H](O[C@@H]3O[C@H](CO)[C@H](O)[C@H](O)[C@H]3O)[C@H]2NC(C)=O)CC1 (stereo partly shown) [Galβ1–3GalNAcα-perillyl] | 135% | 86% | 
12 | CC(=O)N[C@H]1[C@@H](Oc2ccc([N+](=O)[O-])cc2)O[C@H](CO)[C@H](O)[C@@H]1O[C@@H]1O[C@H](CO)[C@H](O)[C@H](O)[C@H]1O [Galβ1–3GalNAcα-pnp, reference compound] | 100 ^a % | 100 ^b % | Vmax ([2]; C2GnT2, acceptor substrate): 1.5 µmol/h/mg
13 | CC(=O)N[C@H]1[C@@H](OCc2ccccc2)O[C@H](CO)[C@@H](O)[C@@H]1O[C@@H]1O[C@H](CO)[C@H](O)[C@H](O)[C@H]1O [Galβ1–3GlcNAcα-Bn] | <1% |  | 
14 | CC(=O)N[C@H]1[C@@H](OCc2ccccc2)O[C@H](CO)[C@H](O)[C@@H]1O[C@@H]1O[C@H](CO)[C@H](O)[C@H](O[C@@H]2O[C@H](CO)[C@@H](O)[C@H](O[C@@H]3O[C@H](CO)[C@H](O)[C@H](O)[C@H]3O)[C@H]2NC(C)=O)[C@H]1O [Galβ1–3GlcNAcβ1–3Galβ1–3GalNAcα-Bn] | <1% | <1% | 
15 | CO[C@@H]1O[C@H](CO)[C@H](O)[C@H](O[C@@H]2O[C@H](CO)[C@@H](O)[C@H](O)[C@H]2NC(C)=O)[C@H]1O [GlcNAcβ1–3-Galβ-methyl] | <1% | <1% | 
16 | C=CCO[C@H]1O[C@H](CO)[C@H](O)[C@H](O[C@@H]2O[C@H](CO)[C@@H](O)[C@H](O)[C@H]2NC(C)=O)[C@H]1NC(C)=O [GlcNAcβ1–3GalNAcα-allyl] | <1% | 27% | 
17 | CC(=O)N[C@H]1[C@H](O[C@H]2[C@@H](O)[C@@H](CO)O[C@H](Oc3ccc([N+](=O)[O-])cc3)[C@@H]2NC(C)=O)O[C@H](CO)[C@@H](O)[C@@H]1O [GlcNAcβ1–3GalNAcα-pnp, reference compound] | <1% | 32% | Vmax ([2]; C2GnT2, acceptor substrate): 1.0 µmol/h/mg
18 | CC(=O)N[C@H]1[C@H](OC[C@H]2O[C@H](OCc3ccccc3)[C@H](NC(C)=O)[C@@H](O[C@@H]3O[C@H](CO)[C@@H](O)[C@H](O)[C@H]3NC(C)=O)[C@H]2O)O[C@H](CO)[C@@H](O)[C@@H]1O [GlcNAcβ1–6(GlcNAcβ1–3)GalNAcα-Bn] | <1% | <1% | 
19 | CC(=O)N[C@H]1[C@@H](OP(=O)(O)OP(=O)(O)OC[C@H]2O[C@@H](n3ccc(=O)[nH]c3=O)[C@H](O)[C@@H]2O)O[C@H](CO)[C@@H](O)[C@@H]1O [UDP-GlcNAc, reference compound] |  |  | Vmax ([1]; C2GnT1, donor substrate, using 5 mM Galβ1–3GalNAcα-pnp): 0.1 µmol/h/mg; Vmax ([2]; C2GnT2, donor substrate, using 5 mM Galβ1–3GalNAcα-pnp): 1.7 µmol/h/mg; Vmax ([2]; C2GnT2, donor substrate, using 5 mM GlcNAcβ1–3GalNAcα-pnp): 0.8 µmol/h/mg
20 | (Galβ1–3GalNAcα)TAGV | 92% | <1% | 
21 | AHGVT-(Galβ1–3GalNAcα)SAPDTRPAPGS- (Galβ1–3GalNAcα)SAPPA | 9% | <1% | 
22 | AHGVT-(Galβ1–3GalNAcα)SAPDTRPAPGSTAP- (Galβ1–3GalNAcα)TA | 18% | <1% | 
23 | AHGVT-(Galβ1–3GalNAcα)SAPDTRPAPGSTAPNA | 9% | <1% | 

Row | Compound | C2GnT1 activity (%) [1] | C2GnT2 activity (%) [2] | further results
24 | AHGVT-(Galβ1–3GalNAcα)SAPDTRPAPGSTAPTA | 9% | <1% | 
25 | AHGVT-(Galβ1–3GalNAcα)SAPESRPAPGSTAPNA | 9% | <1% | 
26 | AHGVT-(Galβ1–3GalNAcα)SAPETRPAPGSTAPTA | 11% | <1% | 
27 | Ac-G-(Galβ1–3GalNAcα)TTTPIST-NH2 | 12% | 8% | 
28 | Ac-GT-(Galβ1–3GalNAcα)TTPIST-NH2 | 13% | 5% | 
29 | Ac-GTT-(Galβ1–3GalNAcα)TPIST-NH2 | 14% | <1% | 
30 | Ac-P-(Galβ1–3GalNAcα)TTTGIST-NH2 | 7% | <1% | 
31 | Ac-P-(Galβ1–3GalNAcβ)TTTPIST-NH2 | 72% | 32% | 
32 | Ac-PT-(Galβ1–3GalNAcα)TTGIST-NH2 | 49% | 6% | 
33 | Ac-PT-(Galβ1–3GalNAcβ)TTPIST-NH2 | 43% | 15% | 
34 | Ac-PTT-(Galβ1–3GalNAcα)TGIST-NH2 | 36% | <1% | 
35 | T-(GalNAcα)TTVTPTPTG |  |  | C1GalT activity (%) [3]: 231%
36 | T-(Galβ1–3GalNAcα)TTVTPTPTG | 11% | <1% | 
37 | T-(GlcNAcβ1–3GalNAcα)TTVTPTPTG | <1% | <1% | 
38 | TE-(GalNAcα)TTSHSTPG |  |  | C1GalT activity (%) [3]: 373%
39 | TE-(GlcNAcβ1–3GalNAcα)TTSHSTPG | <1% | <1% | 
40 | TET-(GalNAcα)TSHSTPG |  |  | C1GalT activity (%) [3]: 210%
41 | TET-(Galβ1–3GalNAcα)TSHSTPG | 27% | <1% | 
42 | TET-(GlcNAcβ1–3GalNAcα)TSHSTPG | <1% | <1% | 
43 | TETTSHS-(Galβ1–3GalNAcα)TPG | 70% | 7% | 
44 | TETTSHS-(GlcNAcβ1–3GalNAcα)TPG | <1% | <1% | 
45 | TT-(Galβ1–3GalNAcα)TVTP-(Galβ1–3GalNAcα)TPTG | 12% | <1% | 
46 | TT-(Galβ1–3GalNAcα)TVTPTPTG | 13% | <1% | 
